Reference: patent publication US4873225A, “1-n-(4-amino-3-fluoro-2-hydroxybutyryl)-kanamycins” (Zaidan Hojin Biseibutsu Kagaku Kenkyu Kai, priority 1987, dated 1989)
≈ marks a conversion by molar mass, not a printed value. Where two headings read alike, the source gives them in different places.

Assays:
[1] = tested on: gram-positive and gram-negative bacteria, including resistant strains; details: reported in earlier applications, cited from earlier work
[2] = tested on: Pseudomonas aeruginosa TI 13; test: MIC, standard serial dilution method; format: cell-based; details: Pseudomonas aeruginosa, read-out: MIC
Method: (§1) Antibacterial activities of each of the abovementioned compounds of the general formula (I) according to this invention were determined by measuring their minimum growth inhibitory concentrations (MIC, mcg/ml) against various bacteria in accordance with a standard serial dilution method. The pH condition of the incubation medium where the MIC data were measured was set at pH 7, unless otherwise specifically indicated. For the sake of comparison, the antibacterial spectra of 1-N-{(S)-4-amino-2-hydroxybutyryl}kanamycin A (i.e., amikacin) and 1-N-{(S)-4-amino-2-hydroxybutyryl}-3,4-dideoxykanamycin B (i.e., habekacin) were also measured in the same manner.
(§2) (a) The antibacterial activities of the compounds of this invention are not decreased practically even under pH conditions of pH […] as compared to their antibacterial activities under neutral conditions of pH 7.

[3] = tested on: Escherichia coli JR66/W677; test: MIC, standard serial dilution method; format: cell-based; details: Escherichia coli, read-out: MIC
Method: as §1, §2

Escherichia coli K-12 R5 = test: MIC, standard serial dilution method; format: cell-based; details: K12R5, pH 7
Method: as §1
Infectious diseases by Escherichia coli K-12 R5 tend to increase in recent days. The compounds of this invention are therefore important for the therapeutic treatment of bacterial infections.

Mycobacterium 607 = test: MIC, standard serial dilution method; format: cell-based; details: Mycobacterium, 607, pH 7; read-out: MIC
Method: as §1

[4] = tested on: Pseudomonas aeruginosa A3; test: MIC, standard serial dilution method; format: cell-based; details: A3, pH 7, read-out: MIC
Method: as §1

Serratia marcescens = test: MIC, standard serial dilution method; format: cell-based; details: pH 7, read-out: MIC
Method: as §1

Proteus rettgeri GN 311 = test: MIC, standard serial dilution method; format: cell-based; details: Providencia rettgeri, GN311, pH 7; read-out: MIC
Method: as §1

[5] = tested on: Escherichia coli K-12 LA 290 R55; test: MIC, standard serial dilution method; format: cell-based; details: K12LA290R55, pH 7
Method: as §1

Bacillus subtilis PCI219 = test: MIC, standard serial dilution method; format: cell-based; details: PCI219, pH 7, read-out: MIC
Method: as §1

[6] = tested on: Corynebacterium bovis 1810; test: MIC, standard serial dilution method; format: cell-based; details: Corynebacterium bovis, 1810, pH 7; read-out: MIC
Method: as §1

[7] = tested on: Staphylococcus aureus Ap01; test: MIC, standard serial dilution method; format: cell-based; details: AP01, pH 7, read-out: MIC
Method: as §1

Escherichia coli JR 225 = test: MIC, standard serial dilution method; format: cell-based; details: JR225, pH 7
Method: as §1

Providencia sp. Pv 16 = test: MIC, standard serial dilution method; format: cell-based; details: SP.PV16, pH 7, read-out: MIC
Method: as §1

[8] = tested on: Pseudomonas aeruginosa GN 315; test: MIC, standard serial dilution method; format: cell-based; details: GN315, pH 7
Method: as §1

[9] = tested on: Escherichia coli K-12 ML 1629; test: MIC, standard serial dilution method; format: cell-based; details: K12ML1629, pH 7, read-out: MIC
Method: as §1

[10] = tested on: Staphylococcus aureus 209P; test: MIC, standard serial dilution method; format: cell-based; details: pH 7, read-out: MIC
Method: as §1

Escherichia coli K-12 = test: MIC, standard serial dilution method; format: cell-based; details: K12, pH 7
Method: as §1

[11] = tested on: Klebsiella pneumoniae 22 #3038; test: MIC, standard serial dilution method; format: cell-based; details: pH 7, read-out: MIC
Method: as §1

mice = test: Acute toxicity against mice; format: in vivo; details: orally administered, 150 mg/kg

| Compound | MIC ([2]; TI13, pH 7) [µg/mL] | MIC ([2]; TI13, measured at pH 6) [µg/mL] | MIC ([3]; JR66/W677, pH 7) [µg/mL] | MIC ([3]; JR66/W677, measured at pH 6) [µg/mL] | MIC (Escherichia coli K-12 R5) [µg/mL] | MIC (Mycobacterium 607) [µg/mL] | MIC [4] [µg/mL] | MIC (Serratia marcescens) [µg/mL] | MIC (Proteus rettgeri GN 311) [µg/mL] | MIC [5] [µg/mL] | MIC (Bacillus subtilis PCI219) [µg/mL] | MIC [6] [µg/mL] | MIC [7] [µg/mL] | MIC (Escherichia coli JR 225) [µg/mL] | MIC (Providencia sp. Pv 16) [µg/mL] | MIC [8] [µg/mL] | MIC [9] [µg/mL] | MIC [10] [µg/mL] | MIC (Escherichia coli K-12) [µg/mL] | MIC [11] [µg/mL] | further results |
| --- | --- | --- | --- | --- | --- | --- | --- | --- | --- | --- | --- | --- | --- | --- | --- | --- | --- | --- | --- | --- | --- |
| NC[C@H]1O[C@H](O[C@H]2[C@H](O)[C@@H](O[C@H]3O[C@H](CO)[C@@H](O)[C@H](N)[C@H]3O)[C@H](N)C[C@@H]2N)[C@H](F)C[C@@H]1O [2',3'-dideoxy-2'-fluorokanamycin A] | – | – | – | – | – | – | – | – | – | – | – | – | – | – | – | – | – | – | – | – | antibacterial activities (in words) [1]: antibacterial activities against gram-positive and gram-negative bacteria, including certain resistant strains of bacteria |
| NC[C@H]1O[C@H](O[C@H]2[C@H](O)[C@@H](O[C@H]3O[C@H](CO)[C@@H](O)[C@H](N)[C@H]3O)[C@H](N)C[C@@H]2N)[C@H](O)[C@@H](F)[C@@H]1O [3'-deoxy-3'-fluorokanamycin A] | – | – | – | – | – | – | – | – | – | – | – | – | – | – | – | – | – | – | – | – | antibacterial activities (in words) [1]: effective also against kanamycin-resistant bacteria |
| NC[C@H]1O[C@H](O[C@H]2[C@H](O)[C@@H](O[C@H]3O[C@H](CO)[C@@H](O)[C@H](N)[C@H]3O)[C@H](N)C[C@@H]2N)[C@H](N)[C@@H](F)[C@@H]1O [3'-deoxy-3'-fluorokanamycin B] | – | – | – | – | – | – | – | – | – | – | – | – | – | – | – | – | – | – | – | – | antibacterial activities (in words) [1]: antibacterial activities against various gram-positive and gram-negative bacteria, including resistant strains |
| NC[C@H]1O[C@H](O[C@H]2[C@H](F)[C@@H](O[C@H]3O[C@H](CO)[C@@H](O)[C@H](N)[C@H]3O)[C@H](N)C[C@@H]2N)[C@H](N)[C@@H](O)[C@@H]1O [5-deoxy-5-fluorokanamycin B] | – | – | – | – | – | – | – | – | – | – | – | – | – | – | – | – | – | – | – | – | antibacterial activities relative to kanamycin B ([1]; over kanamycin B): enhanced or improved advantageously over kanamycin B |
| NC[C@@H](F)[C@H](O)C(=O)N[C@@H]1C[C@H](N)[C@@H](O[C@H]2O[C@H](CN)[C@@H](O)C[C@H]2N)[C@H](O)[C@H]1O[C@H]1O[C@H](CO)[C@@H](O)[C@H](N)[C@H]1O [Invention Compound No. 6, 1-N-{(2R,3R)-4-Amino-3-fluoro-2-hydroxybutyryl}-3'-deoxykanamycin B] | 0.78 (≈ 1.33 µM) | 3.12 (≈ 5.32 µM) | 0.39 (≈ 0.665 µM) | 1.56 (≈ 2.66 µM) | 3.12 (≈ 5.32 µM) | 0.78 (≈ 1.33 µM) | < 0.2 | 3.12 (≈ 5.32 µM) | 0.39 (≈ 0.665 µM) | 0.39 (≈ 0.665 µM) | 0.2 (≈ 0.341 µM) | 0.39 (≈ 0.665 µM) | 0.78 (≈ 1.33 µM) | < 0.2 | 0.78 (≈ 1.33 µM) | 3.12 (≈ 5.32 µM) | 0.78 (≈ 1.33 µM) | 0.39 (≈ 0.665 µM) | < 0.2 | 1.56 (≈ 2.66 µM) | – |
| NC[C@@H]1CC[C@@H](N)[C@@H](O[C@H]2[C@H](O)[C@@H](O[C@H]3O[C@H](CO)[C@@H](O)[C@H](N)[C@H]3O)[C@H](NC(=O)[C@@H](O)[C@H](F)CN)C[C@@H]2N)O1 [Invention Compound No. 7, 1-N-{(2R,3R)-4-Amino-3-fluoro-2-hydroxybutyryl}-3',4'-dideoxykanamycin B] | 0.78 (≈ 1.37 µM) | 1.56 (≈ 2.73 µM) | 0.78 (≈ 1.37 µM) | 1.56 (≈ 2.73 µM) | 3.12 (≈ 5.47 µM) | 0.78 (≈ 1.37 µM) | 0.39 (≈ 0.683 µM) | 3.12 (≈ 5.47 µM) | < 0.2 | 0.39 (≈ 0.683 µM) | < 0.2 | < 0.2 | 0.78 (≈ 1.37 µM) | 0.78 (≈ 1.37 µM) | 0.78 (≈ 1.37 µM) | 3.12 (≈ 5.47 µM) | 0.78 (≈ 1.37 µM) | < 0.2 | < 0.2 | 0.78 (≈ 1.37 µM) | – |
| NC[C@@H](F)[C@H](O)C(=O)N[C@@H]1C[C@H](N)[C@@H](O[C@H]2O[C@H](CN)[C@@H](O)[C@H](O)[C@H]2N)[C@H](F)[C@H]1O[C@H]1O[C@H](CO)[C@@H](O)[C@H](N)[C@H]1O [Invention Compound No. 8, 1-N-{(2R,3R)-4-Amino-3-fluoro-2-hydroxybutyryl}-5-deoxy-5-fluorokanamycin B] | 1.56 (≈ 2.58 µM) | 6.25 (≈ 10.3 µM) | 0.78 (≈ 1.29 µM) | 3.12 (≈ 5.16 µM) | 3.12 (≈ 5.16 µM) | 12.5 (≈ 20.7 µM) | 0.39 (≈ 0.645 µM) | 1.56 (≈ 2.58 µM) | 0.2 (≈ 0.331 µM) | 0.39 (≈ 0.645 µM) | 0.39 (≈ 0.645 µM) | 0.39 (≈ 0.645 µM) | 6.25 (≈ 10.3 µM) | 0.2 (≈ 0.331 µM) | 0.78 (≈ 1.29 µM) | 6.25 (≈ 10.3 µM) | 0.78 (≈ 1.29 µM) | 0.39 (≈ 0.645 µM) | < 0.2 | 3.12 (≈ 5.16 µM) | – |
| NC[C@@H](F)[C@H](O)C(=O)N[C@@H]1C[C@H](N)[C@@H](O[C@H]2O[C@H](CN)[C@@H](O)C[C@H]2N)[C@H](F)[C@H]1O[C@H]1O[C@H](CO)[C@@H](O)[C@H](N)[C@H]1O [Invention Compound No. 9, 1-N-{(2R,3R)-4-Amino-3-fluoro-2-hydroxybutyryl}-5,3'-dideoxy-5-fluorokanamycin B] | 0.78 (≈ 1.33 µM) | 3.12 (≈ 5.3 µM) | 0.39 (≈ 0.663 µM) | 1.56 (≈ 2.65 µM) | 3.12 (≈ 5.3 µM) | 1.56 (≈ 2.65 µM) | 0.2 (≈ 0.34 µM) | 3.12 (≈ 5.3 µM) | 0.2 (≈ 0.34 µM) | 0.39 (≈ 0.663 µM) | < 0.2 | < 0.2 | 0.78 (≈ 1.33 µM) | 0.2 (≈ 0.34 µM) | 0.78 (≈ 1.33 µM) | 3.12 (≈ 5.3 µM) | 0.78 (≈ 1.33 µM) | 0.39 (≈ 0.663 µM) | < 0.2 | 0.78 (≈ 1.33 µM) | – |
| NC[C@@H]1CC[C@@H](N)[C@@H](O[C@H]2[C@H](F)[C@@H](O[C@H]3O[C@H](CO)[C@@H](O)[C@H](N)[C@H]3O)[C@H](NC(=O)[C@@H](O)[C@H](F)CN)C[C@@H]2N)O1 [Invention Compound No. 10, 1-N-{(2R,3R)-4-Amino-3-fluoro-2-hydroxybutyryl}-5,3',4'-trideoxy-5-fluorokanamycin B] | 0.78 (≈ 1.36 µM) | 3.12 (≈ 5.45 µM) | 0.39 (≈ 0.681 µM) | 1.56 (≈ 2.72 µM) | 3.12 (≈ 5.45 µM) | 0.78 (≈ 1.36 µM) | < 0.2 | 1.56 (≈ 2.72 µM) | < 0.2 | 0.39 (≈ 0.681 µM) | 0.2 (≈ 0.349 µM) | < 0.2 | 0.78 (≈ 1.36 µM) | < 0.2 | 0.78 (≈ 1.36 µM) | 3.12 (≈ 5.45 µM) | 0.39 (≈ 0.681 µM) | 0.39 (≈ 0.681 µM) | 0.2 (≈ 0.349 µM) | 0.78 (≈ 1.36 µM) | – |
| NC[C@@H](F)[C@H](O)C(=O)N[C@@H]1C[C@H](N)[C@@H](O[C@H]2O[C@H](CN)[C@@H](O)[C@H](O)[C@H]2O)[C@H](O)[C@H]1O[C@H]1O[C@H](CO)[C@@H](O)[C@H](N)[C@H]1O [Invention Compound Nos. 1] | – | – | – | – | – | – | – | – | – | – | – | – | – | – | – | – | – | – | – | – | survival of mice (mice): all mice surrived |
